Measurements as given in ChEMBL document CHEMBL1130668, “Synthesis and evaluation of paclitaxel C7 derivatives: solution phase synthesis of combinatorial libraries” (1998).
Active and inactive are the calls of the source.

Key:
MCF7 [1] = experiment: Cytotoxicity activity was measured against human breast cancer cell line MCF-7 with respect to ED50 of paclitaxel (2 nM); IA inactive; type: functional, cell-based
MCF7 [2] = experiment: Cytotoxicity activity was measured against resistant human breast cancer cell line MCF-7 with respect to ED50 of paclitaxel (2200-3700 nM); IA inactive; type: functional, cell-based
[3] = Ratio in tubulin to that of paclitaxel (0.3 uM) in microtubule assembly assay; IA inactive; type: functional

CCCCCCCCCCCCC(=O)O[C@H]1C[C@H]2OC[C@@]2(OC(C)=O)[C@H]2[C@H](OC(=O)c3ccccc3)[C@]3(O)C[C@H](OC(=O)[C@H](O)[C@@H](NC(=O)c4ccccc4)c4ccccc4)C(C)=C([C@@H](OC(C)=O)C(=O)[C@]12C)C3(C)C
inactive: ED50 (MCF7 [1]) | ED50 (MCF7 [2]) | Ratio [3]

CC(=O)O[C@H]1C(=O)[C@]2(C)[C@@H](OC(=O)c3cnc(Cl)c(Cl)c3)C[C@H]3OC[C@@]3(OC(C)=O)[C@H]2[C@H](OC(=O)c2ccccc2)[C@]2(O)C[C@H](OC(=O)[C@H](O)[C@@H](NC(=O)c3ccccc3)c3ccccc3)C(C)=C1C2(C)C
inactive: ED50 (MCF7 [1]) | ED50 (MCF7 [2]) | Ratio [3]

CC(=O)O[C@H]1C(=O)[C@]2(C)[C@@H](OC(=O)CCc3ccccc3)C[C@H]3OC[C@@]3(OC(C)=O)[C@H]2[C@H](OC(=O)c2ccccc2)[C@]2(O)C[C@H](OC(=O)[C@H](O)[C@@H](NC(=O)c3ccccc3)c3ccccc3)C(C)=C1C2(C)C
inactive: ED50 (MCF7 [1]) | ED50 (MCF7 [2]) | Ratio [3]
